Results from patent US10383329B2, “Preservatives” (Eden Research PLC, priority 2012, dated 2019).

Assay: Citral solution / stable suspension limit
Format: physicochemical
From the text: The choice of terpene may vary and mixtures of terpenes in an appropriate amount may be used. Thus, in one embodiment the terpene component includes one or more terpenes which contain oxygen. Citral, for example citral 95, is an oxygenated C10H16 terpene, C10H16O CAS No. 5392-40-5 (3,7-dimethyl-2,6-octadien-1-al). A stable suspension of citral can be formed up to about 2500 ppm. Citral can be made into a solution at up to about 500 ppm. A stable suspension of hollow glucan particles incorporating citral of 25 ppt citral can be made.

## CC(C)=CCCC(C)=CC=O [Citral, 3,7-dimethyl-2,6-octadien-1-al]
solution
  Concentration up to which citral can be made into a solution: up to 500 ppm
Stable suspension
  Concentration up to which a stable suspension of citral can be formed: up to 2500 ppm
